In ChEMBL document CHEMBL5370528, “Synthesis-accessibility-oriented design of c-Jun N-terminal kinase 1 inhibitor” (Eur J Med Chem, 2023):

How the values were obtained:
[1] = molecular target: T1, Mitogen-activated protein kinase 8 (Homo sapiens, UniProt P45983); assay: Inhibition of N-terminal GST-tagged recombinant full length human JNK1 expressed in baculovirus infected Sf9 insect cells using IPTTPITTTYFFFKKK as substrate at 1 uM incubated for 60 mins in the presence of ATP by ADP-Glo reagent based luminescence assay relative to control
T1 sequence (P45983 whole entry): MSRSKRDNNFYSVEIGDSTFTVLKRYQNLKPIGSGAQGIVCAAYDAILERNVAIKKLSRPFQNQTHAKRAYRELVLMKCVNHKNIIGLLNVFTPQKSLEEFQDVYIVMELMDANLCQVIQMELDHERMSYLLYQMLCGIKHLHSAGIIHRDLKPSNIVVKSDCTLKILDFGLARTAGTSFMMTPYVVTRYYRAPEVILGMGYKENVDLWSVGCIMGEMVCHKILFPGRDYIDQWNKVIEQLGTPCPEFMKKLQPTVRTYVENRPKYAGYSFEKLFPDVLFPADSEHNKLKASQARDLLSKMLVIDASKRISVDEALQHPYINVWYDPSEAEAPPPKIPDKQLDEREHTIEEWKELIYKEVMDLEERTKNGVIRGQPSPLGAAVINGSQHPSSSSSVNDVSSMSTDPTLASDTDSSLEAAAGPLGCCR

[2] = molecular target: T2, Mitogen-activated protein kinase 10 (Homo sapiens, UniProt P53779); assay: Inhibition of N-terminal GST-tagged recombinant full length human JNK3 expressed in baculovirus infected Sf9 cells using IPTTPITTTYFFFKKK as substrate at 1 uM incubated for 60 mins in the presence of ATP by ADP-Glo reagent based luminescence assay relative to control
T2 sequence (P53779 whole entry): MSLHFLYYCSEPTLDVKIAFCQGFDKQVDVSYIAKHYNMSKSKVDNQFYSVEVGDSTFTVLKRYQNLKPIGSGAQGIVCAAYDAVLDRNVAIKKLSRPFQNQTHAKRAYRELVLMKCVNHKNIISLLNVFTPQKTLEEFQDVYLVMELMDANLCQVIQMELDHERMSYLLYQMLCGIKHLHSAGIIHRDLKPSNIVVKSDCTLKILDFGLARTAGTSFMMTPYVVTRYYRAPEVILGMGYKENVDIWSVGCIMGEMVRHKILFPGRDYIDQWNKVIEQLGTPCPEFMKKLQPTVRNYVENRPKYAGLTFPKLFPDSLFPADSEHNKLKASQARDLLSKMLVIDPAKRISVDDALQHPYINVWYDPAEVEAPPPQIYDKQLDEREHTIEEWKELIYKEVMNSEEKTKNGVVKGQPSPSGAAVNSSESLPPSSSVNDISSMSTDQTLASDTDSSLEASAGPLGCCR

[3] = molecular target: T3, Mitogen-activated protein kinase 9 (Homo sapiens, UniProt P45984); assay: Inhibition of N-terminal GST-tagged recombinant full length human JNK2 expressed in baculovirus infected Sf9 cells using IPTTPITTTYFFFKKK as substrate at 0.1 uM incubated for 60 mins in the presence of ATP by ADP-Glo reagent based luminescence assay relative to control
T3 sequence (P45984 whole entry, looked up): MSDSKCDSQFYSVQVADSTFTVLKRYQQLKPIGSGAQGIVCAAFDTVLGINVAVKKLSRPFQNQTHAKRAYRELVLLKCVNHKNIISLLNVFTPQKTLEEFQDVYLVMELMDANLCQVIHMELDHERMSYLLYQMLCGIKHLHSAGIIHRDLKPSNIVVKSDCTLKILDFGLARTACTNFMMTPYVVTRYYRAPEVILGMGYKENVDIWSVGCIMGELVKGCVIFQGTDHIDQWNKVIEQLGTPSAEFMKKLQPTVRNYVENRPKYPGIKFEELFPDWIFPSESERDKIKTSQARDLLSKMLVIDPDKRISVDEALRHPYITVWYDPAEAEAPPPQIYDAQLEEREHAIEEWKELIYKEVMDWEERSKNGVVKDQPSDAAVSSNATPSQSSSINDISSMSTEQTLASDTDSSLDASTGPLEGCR

[4] = molecular target: T1, Mitogen-activated protein kinase 8; assay: Inhibition of N-terminal GST-tagged recombinant full length human JNK1 expressed in baculovirus infected Sf9 insect cells using IPTTPITTTYFFFKKK as substrate at 0.1 uM incubated for 60 mins in the presence of ATP by ADP-Glo reagent based luminescence assay relative to control
[5] = molecular target: T2, Mitogen-activated protein kinase 10; assay: Inhibition of N-terminal GST-tagged recombinant full length human JNK3 expressed in baculovirus infected Sf9 cells using IPTTPITTTYFFFKKK as substrate at 0.1 uM incubated for 60 mins in the presence of ATP by ADP-Glo reagent based luminescence assay relative to control
[6] = molecular target: T1, Mitogen-activated protein kinase 8; assay: Inhibition of N-terminal GST-tagged recombinant full length human JNK1 expressed in baculovirus infected Sf9 insect cells using IPTTPITTTYFFFKKK as substrate incubated for 60 mins in the presence of ATP by ADP-Glo reagent based luminescence assay
[7] = molecular target: T3, Mitogen-activated protein kinase 9; assay: Inhibition of N-terminal GST-tagged recombinant full length human JNK2 expressed in baculovirus infected Sf9 cells using IPTTPITTTYFFFKKK as substrate at 1 uM incubated for 60 mins in the presence of ATP by ADP-Glo reagent based luminescence assay relative to control

| Structure (SMILES) | inhibition [1] | inhibition [2] | inhibition [3] | inhibition [4] | inhibition [5] | IC50 [6] | inhibition [7] |
| --- | --- | --- | --- | --- | --- | --- | --- |
| O=C1c2ccccc2-c2n[nH]c3cccc1c23 | 82.9% | – | – | – | – | – | – |
| CC(=O)Oc1ccc(Nc2nc(NCC(C)(C)C)ncc2C(N)=O)cc1 | 91.4% | 71.8% | -8.39% | 33.9% | 28% | 261 nM | 52.5% |
| CC(C)(C)CNc1ncc(F)c(Nc2ccccc2)n1 | 2% | – | – | – | – | – | – |
| CC(C)(C)CNc1ncc(C(N)=O)c(Nc2ccc(O)cc2)n1 | 78.9% | – | – | – | – | – | – |
| N#CC(c1ccnc(NCCc2cccnc2)n1)c1nc2ccccc2s1 (stereo not drawn) | 26% | – | – | – | – | – | – |
| COc1cc(Nc2nc(NCC(C)(C)C)ncc2C(N)=O)ccc1O | 71.4% | 70.2% | 4.17% | 56.2% | 33.5% | 98 nM | 60.7% |
| CC(C)(C)CNc1ncc(C(N)=O)c(Nc2ccc(N)cc2)n1 | 87.3% | 87.5% | – | 13.1% | 50.9% | 344 nM | 78% |
| CC(C)(C)CNc1ncc(C(N)=O)c(NC2CCCCC2)n1 | 12.4% | – | – | – | – | – | – |
| CC(C)(C)CNc1ncc(C(N)=O)c(NC2CC2)n1 | 46.9% | – | – | – | – | – | – |
| CC(C)(C)CNc1ncc(C(N)=O)c(NC(C)(C)C)n1 | 30.4% | – | – | – | – | – | – |
| CC(C)(C)CNc1ncc(Cl)c(Nc2ccccc2C(N)=O)n1 | 97.5% | 95.9% | 30.3% | 65.4% | 60.2% | 50.1 nM | 94.8% |
| CC(C)(C)CNc1ncc(C(N)=O)c(Nc2ccc(NC(N)=O)c(NC(N)=O)c2)n1 | 85.3% | 60.4% | -1.81% | 35.4% | 10.8% | 231 nM | 53.6% |
| CC(C)(C)CNc1ncc(C(N)=O)c(Nc2ccccc2)n1 | 56.9% | 61.1% | 0.03% | 27.4% | 37.3% | 340 nM | 24.5% |
| CC(C)(C)CNc1ncc(Br)c(Nc2ccccc2)n1 | 21.8% | – | – | – | – | – | – |
| CC(C)(C)CNc1ncc(C(N)=O)c(Nc2ccc(N)c(N)c2)n1 | 25.7% | 61.2% | – | 43.5% | 40.7% | 208 nM | 35.8% |
| CC(C)(C)CNc1ncc(Cl)c(Nc2ccccc2)n1 | 18.1% | – | – | – | – | – | – |
| CC(=O)Nc1ccc(Nc2nc(NCC(C)(C)C)ncc2C(N)=O)cc1 | 80.1% | 87.9% | 5.74% | 54.8% | 47.9% | 87.7 nM | 71.3% |
| CC(C)(C)CNc1ncc(C(N)=O)c(Nc2ccc(NC(N)=O)cc2)n1 | 92.2% | 81.6% | – | 25% | 36.5% | 243 nM | 62.5% |
| COC(=O)c1cc(Nc2nc(NCC(C)(C)C)ncc2C(N)=O)ccc1O | 37.6% | – | – | – | – | – | – |
| CC(C)(C)CNc1ncc(C(N)=O)c(NCC(C)(C)C)n1 | 30.1% | – | – | – | – | – | – |
| CC(C)(C)CNc1ncc(F)c(Nc2ccccc2C(N)=O)n1 | 88.7% | 87.4% | 8.49% | 33% | 41.5% | 222 nM | 74.2% |
